# Assay results: patent US12655116B2, “Substituted isophthalic acid diamides” (Bayer Aktiengesellschaft, priority 2020, dated 2026)
# Experiments:
# ABUTH [1] = experiment: Post-emergence herbicidal action against ABUTH; format: in vivo, Abutilon theophrasti; conditions: visual assessment about 3 weeks after treatment vs untreated controls
# Outline: (§1)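 Visual % rating (0% = as untreated, 100% = dead) ~3 wk after spraying one-leaf-stage plants grown in sandy loam; WP/EC in water at 600–800 l/ha, 0.2% wetting agent.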
# SETVI [2] = experiment: Post-emergence herbicidal action against SETVI; format: in vivo, Setaria viridis
# Outline: as §1
# SETVI [3] = experiment: Pre-emergence herbicidal action against SETVI; format: in vivo, Setaria viridis
# Outline: (§2)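 Sandy loam pots, seeds covered with soil, then surface-treated with WP or EC formulations at 600–800 l/ha water plus 0.2% wetting agent. Greenhouse, 3 weeks. Percent damage vs untreated controls.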
# MATIN [4] = experiment: Pre-emergence herbicidal action against MATIN; format: in vivo, Matricaria inodora
# Outline: as §2
# AMARE [5] = experiment: Pre-emergence herbicidal action against AMARE; format: in vivo, Amaranthus retroflexus
# Outline: as §2
# ABUTH [6] = experiment: Pre-emergence herbicidal action against ABUTH; format: in vivo, Abutilon theophrasti
# Outline: as §2
# VERPE = experiment: Pre-emergence herbicidal action against VERPE; format: in vivo, Veronica persica; conditions: dosage 80 g/ha
# Outline: as §2
# ECHCG [7] = experiment: Post-emergence herbicidal action against ECHCG; format: in vivo, Echinochloa crus-galli
# Outline: as §1
# ECHCG [8] = experiment: Pre-emergence herbicidal action against ECHCG; format: in vivo, Echinochloa crus-galli
# Outline: as §2
# DIGSA [9] = experiment: Post-emergence herbicidal action against DIGSA; format: in vivo, Digitaria sanguinalis
# Outline: as §1
# ALOMY [10] = experiment: Post-emergence herbicidal action against ALOMY; format: in vivo, Alopecurus myosuroides; conditions: dosage 20 g/ha, visual assessment about 3 weeks after treatment vs untreated controls
# Outline: as §1
# STEME [11] = experiment: Post-emergence herbicidal action against STEME; format: in vivo, Stellaria media
# Outline: as §1
# LOLRI = experiment: Pre-emergence herbicidal action against LOLRI; format: in vivo, Lolium rigidum; conditions: 80 g/ha
# Outline: as §2
# ALOMY [12] = experiment: Pre-emergence herbicidal action against ALOMY; format: in vivo, Alopecurus myosuroides; conditions: pre-emergence
# Outline: as §2
# AMARE [13] = experiment: Post-emergence herbicidal action against AMARE; format: in vivo, Amaranthus retroflexus; conditions: 20 g/ha, visual assessment about 3 weeks after treatment, 100% = plants have died, 0% = like control plants
# Outline: as §1
# DIGSA [14] = experiment: Pre-emergence herbicidal action against DIGSA; format: in vivo, Digitaria sanguinalis
# Outline: as §2
# MATIN [15] = experiment: Post-emergence herbicidal action against MATIN; format: in vivo, Matricaria inodora
# Outline: as §1
# VIOTR [16] = experiment: Pre-emergence herbicidal action against VIOTR; format: in vivo, Viola tricolor
# Outline: as §2
# PHBPU [17] = experiment: Pre-emergence herbicidal action against PHBPU; format: in vivo, Pharbitis purpurea; conditions: dosage 80 g/ha
# Outline: as §2
# STEME [18] = experiment: Pre-emergence herbicidal action against STEME; format: in vivo, Stellaria media
# Outline: as §2
# AVEFA [19] = experiment: Pre-emergence herbicidal action against AVEFA; format: in vivo, Avena fatua; conditions: pre-emergence
# Outline: as §2
# HORMU = experiment: Pre-emergence herbicidal action against HORMU; format: in vivo, Hordeum murinum; conditions: 80 g/ha, pre-emergence
# From the text: Seeds of monocotyledonous and dicotyledonous weed plants and crop plants are laid out in sandy loam soil in wood-fiber pots and covered with soil. The compounds of the invention, formulated in the form of wettable powders (WP) or as emulsion concentrates (EC), are then applied to the surface of the covering soil in the form of an aqueous suspension or emulsion at a water application rate equivalent to 600 to 800 l/ha, with addition of 0.2% wetting agent. After the treatment, the pots are placed in a greenhouse and kept under good growth conditions for the trial plants. The damage to the test plants is scored visually after a test period of 3 weeks by comparison with untreated controls (herbicidal activity in percent (%): 100% activity=the plants have died, 0% activity=like control plants). […] The tables below illustrate, in an illustrative manner, the post-emergence herbicidal action of the compounds of the invention, the herbicidal activity being stated in percent.
# AVEFA [20] = experiment: Post-emergence herbicidal action against AVEFA; format: in vivo, Avena fatua; conditions: Avena fatua, 504 h, 20 g/ha, visual assessment about 3 weeks after treatment, 100% = plants have died, 0% = like control plants
# Outline: as §1
# VIOTR [21] = experiment: Post-emergence herbicidal action against VIOTR; format: in vivo, Viola tricolor; conditions: Viola tricolor, 504 h
# Outline: as §1
# PHBPU [22] = experiment: Post-emergence herbicidal action against PHBPU; format: in vivo, Pharbitis purpurea; conditions: Ipomoea purpurea, 504 h
# Outline: as §1
# [23] = 80 g/ha, scored visually after 3 weeks vs untreated controls (100% = plants have died, 0% = like control plants)
# [24] = Setaria viridis, 504 h, dosage 20 g/ha
# [25] = Tripleurospermum inodorum, 504 h, dosage 20 g/ha
smiles,measurement,setting,value
CCc1c(C(=O)Nc2nnnn2CC)ccc(C(F)(F)F)c1C(=O)NC1CC1 [Example 2-273],Post-emergence action against ABUTH in %,ABUTH [1]; dosage 5 g/ha,90%
same,Post-emergence action against ABUTH in %,ABUTH [1]; dosage 20 g/ha,90%
same,Post-emergence action against SETVI in %,SETVI [2]; dosage 5 g/ha,80%
same,Post-emergence action against SETVI in %,SETVI [2]; dosage 20 g/ha,90%
same,Pre-emergence action against SETVI in %,SETVI [3]; dosage 20 g/ha,80%
same,Pre-emergence action against SETVI in %,SETVI [3]; dosage 80 g/ha,90%
same,Pre-emergence action against MATIN in %,MATIN [4]; dosage 20 g/ha,100%
same,Pre-emergence action against MATIN in %,MATIN [4]; dosage 80 g/ha,100%
same,Pre-emergence action against AMARE in %,"AMARE [5]; 20 g/ha, scored visually after 3 weeks vs untreated controls, 100% = plants have died, 0% = like control plants",90%
same,Pre-emergence action against AMARE in %,AMARE [5]; [23],100%
same,Pre-emergence action against ABUTH (herbicidal activity),ABUTH [6]; [23],90%
same,Pre-emergence action against ABUTH (herbicidal activity in percent),"ABUTH [6]; dosage 20 g/ha, scored visually after 3 weeks vs untreated controls, 100% = plants have died, 0% = like control plants",90%
same,Pre-emergence action against VERPE in %,VERPE,100%
same,Post-emergence action against ECHCG in %,ECHCG [7]; dosage 5 g/ha,80%
same,Post-emergence action against ECHCG in %,ECHCG [7]; dosage 20 g/ha,90%
same,Pre-emergence action against ECHCG in %,ECHCG [8]; 80 g/ha,90%
same,Post-emergence action against DIGSA in %,DIGSA [9]; 5 g/ha,80%
same,Post-emergence action against DIGSA,DIGSA [9]; 20 g/ha,90%
same,Post-emergence action against ALOMY in %,ALOMY [10],80%
same,Post-emergence action against STEME in %,STEME [11]; 20 g/ha,90%
same,Post-emergence action against STEME in %,STEME [11]; dosage 5 g/ha,80%
same,Pre-emergence action against LOLRI in %,LOLRI,80%
same,Pre-emergence action against ALOMY (herbicidal activity),ALOMY [12]; [23],90%
same,Post-emergence action at 20 g/ha against AMARE in %,AMARE [13],90%
same,Pre-emergence action against DIGSA in %,DIGSA [14]; dosage 20 g/ha,100%
same,Pre-emergence action against DIGSA in %,DIGSA [14]; dosage 80 g/ha,100%
same,Post-emergence action against MATIN in %,MATIN [15]; dosage 5 g/ha,80%
same,Post-emergence action against MATIN in %,MATIN [15]; dosage 20 g/ha,90%
same,Pre-emergence action against VIOTR in %,VIOTR [16]; dosage 20 g/ha,90%
same,Pre-emergence action against VIOTR in %,VIOTR [16]; dosage 80 g/ha,100%
same,Pre-emergence action against PHBPU in %,PHBPU [17],90%
same,Pre-emergence action against STEME in %,STEME [18]; dosage 20 g/ha,90%
same,Pre-emergence action against STEME in %,STEME [18]; dosage 80 g/ha,90%
same,Pre-emergence action against AVEFA in %,AVEFA [19]; 80 g/ha,90%
same,Pre-emergence action against HORMU in %,HORMU,80%
CCNC(=O)c1c(C(F)(F)F)ccc(C(=O)Nc2nnnn2C)c1Cl [Example 1-130],pest or weed control at 5 g/ha,"ABUTH [1]; Abutilon theophrasti, 504 h, dosage 5 g/ha",90%
same,pest or weed control at 20 g/ha,"ABUTH [1]; Abutilon theophrasti, 504 h, dosage 20 g/ha",90%
same,pest or weed control at 20 g/ha,SETVI [2]; [24],80%
same,pest or weed control at 20 g/ha,AVEFA [20],80%
same,pest or weed control at 20 g/ha,SETVI [3]; [24],90%
same,pest or weed control at 80 g/ha,"SETVI [3]; Setaria viridis, 504 h, dosage 80 g/ha",100%
same,pest or weed control at 20 g/ha,MATIN [4]; [25],100%
same,pest or weed control at 80 g/ha,"MATIN [4]; Tripleurospermum inodorum, 504 h, dosage 80 g/ha",100%
same,pest or weed control at 20 g/ha,"AMARE [5]; Amaranthus retroflexus, 504 h, 20 g/ha, scored visually after 3 weeks vs untreated controls, 100% = plants have died, 0% = like control plants",100%
same,pest or weed control at 80 g/ha,"AMARE [5]; Amaranthus retroflexus, 504 h, 80 g/ha, scored visually after 3 weeks vs untreated controls, 100% = plants have died, 0% = like control plants",100%
same,pest or weed control at 80 g/ha,"ABUTH [6]; Abutilon theophrasti, 504 h, 80 g/ha, scored visually after 3 weeks vs untreated controls (100% = plants have died, 0% = like control plants)",100%
same,pest or weed control at 20 g/ha,"ABUTH [6]; Abutilon theophrasti, 504 h, dosage 20 g/ha, scored visually after 3 weeks vs untreated controls, 100% = plants have died, 0% = like control plants, read-out: Pre-emergence action against ABUTH (herbicidal activity in percent)",100%
same,pest or weed control at 80 g/ha,"VERPE; Veronica persica, 504 h",80%
same,pest or weed control at 5 g/ha,"ECHCG [7]; Echinochloa crus-galli, 504 h, dosage 5 g/ha",80%
same,pest or weed control at 20 g/ha,"ECHCG [7]; Echinochloa crus-galli, 504 h, dosage 20 g/ha",80%
same,pest or weed control at 20 g/ha,"ECHCG [8]; Echinochloa crus-galli, 504 h, 20 g/ha",90%
same,pest or weed control at 80 g/ha,"ECHCG [8]; Echinochloa crus-galli, 504 h, 80 g/ha",100%
same,pest or weed control at 5 g/ha,VIOTR [21]; 5 g/ha,90%
same,pest or weed control at 20 g/ha,VIOTR [21]; 20 g/ha,90%
same,pest or weed control at 5 g/ha,"DIGSA [9]; Digitaria sanguinalis, 504 h, 5 g/ha",90%
same,pest or weed control at 20 g/ha,"DIGSA [9]; Digitaria sanguinalis, 504 h, 20 g/ha",90%
same,pest or weed control at 20 g/ha,"ALOMY [10]; Alopecurus myosuroides, 504 h",80%
same,pest or weed control at 5 g/ha,PHBPU [22]; dosage 5 g/ha,80%
same,pest or weed control at 20 g/ha,PHBPU [22]; dosage 20 g/ha,90%
same,pest or weed control at 20 g/ha,"STEME [11]; Stellaria media, 504 h, 20 g/ha",80%
same,pest or weed control at 5 g/ha,"STEME [11]; Stellaria media, 504 h, dosage 5 g/ha",80%
same,pest or weed control at 80 g/ha,"LOLRI; Lolium rigidum, 504 h",100%
same,pest or weed control at 80 g/ha,"ALOMY [12]; Alopecurus myosuroides, 504 h, 80 g/ha, scored visually after 3 weeks vs untreated controls (100% = plants have died, 0% = like control plants)",100%
same,pest or weed control at 20 g/ha,"ALOMY [12]; Alopecurus myosuroides, 504 h, 20 g/ha, scored visually after 3 weeks, 100% = plants have died, 0% = like control plants",100%
same,pest or weed control at 20 g/ha,"AMARE [13]; Amaranthus retroflexus, 504 h",90%
same,pest or weed control at 20 g/ha,"DIGSA [14]; Digitaria sanguinalis, 504 h, dosage 20 g/ha",100%
same,pest or weed control at 80 g/ha,"DIGSA [14]; Digitaria sanguinalis, 504 h, dosage 80 g/ha",100%
same,pest or weed control at 20 g/ha,MATIN [15]; [25],80%
same,pest or weed control at 20 g/ha,"VIOTR [16]; Viola tricolor, 504 h, dosage 20 g/ha",100%
same,pest or weed control at 80 g/ha,"VIOTR [16]; Viola tricolor, 504 h, dosage 80 g/ha",100%
same,pest or weed control at 20 g/ha,"STEME [18]; Stellaria media, 504 h, dosage 20 g/ha",100%
same,pest or weed control at 80 g/ha,"STEME [18]; Stellaria media, 504 h, dosage 80 g/ha",100%
same,pest or weed control at 80 g/ha,"AVEFA [19]; Avena fatua, 504 h, 80 g/ha",100%
same,pest or weed control at 20 g/ha,"AVEFA [19]; Avena fatua, 504 h, 20 g/ha, scored visually after 3 weeks, 100% = plants have died, 0% = like control plants",100%
same,pest or weed control at 80 g/ha,"HORMU; Hordeum murinum, 504 h",90%
